Experimental findings from ChEMBL document CHEMBL3880442, “NHE3-binding compounds and methods for inhibiting phosphate transport” (2014) are described below.

The subject of assay [1] is Rattus norvegicus. Description: Effect on sodium level in urine in Sprague-Dawley rat at 3 mg/kg administered via oral gavage measured after 16 hrs by gravimetric analysis relative to vehicle-treated control. The assay is classed as functional.
Assay [2] deals with Rattus norvegicus. The experiment in a line: Effect on phosphate level in urine in Sprague-Dawley rat at 3 mg/kg administered via oral gavage measured after 16 hrs by gravimetric analysis relative to vehicle-treated control. The assay is classed as functional.
The subject of assay [3] is Rattus norvegicus. The experiment in a line: Effect on sodium level in urine in Sprague-Dawley rat at 10 mg/kg administered via oral gavage measured after 16 hrs by gravimetric analysis relative to vehicle-treated control. The assay is classed as functional.
Assay [4] relates to Rattus norvegicus. The experiment in a line: Effect on phosphate level in urine in Sprague-Dawley rat at 10 mg/kg administered via oral gavage measured after 16 hrs by gravimetric analysis relative to vehicle-treated control. The assay is classed as functional.
Assay [5] relates to Rattus norvegicus. The experiment in a line: Inhibition of NHE3-mediated intestinal phosphate uptake in rat at 10 mg/kg, po administered with 33-labeled Pi in presence of calcium. It is filed as functional, organism-based.
Assay [6] relates to Rattus norvegicus. The experiment in a line: Inhibition of NHE3-mediated intestinal phosphate uptake in rat at 10 mg/kg, po administered with 33-labeled Pi in presence of glucose and calcium. It is filed as functional, organism-based.
Assay [7] deals with Rattus norvegicus. The experiment in a line: Inhibition of NHE3-mediated intestinal phosphate uptake in rat at 10 mg/kg, po administered with 33-labeled Pi. The assay is classed as functional, organism-based.
Assay [8] has as its system Rattus norvegicus. The experiment in a line: Reduction in urinary sodium level in rat at 10 mg/kg, po administered with 33-labeled Pi. It is filed as functional, organism-based.
The test system of assay [9] is Rattus norvegicus. The experiment in a line: Effect on sodium level in urine in Sprague-Dawley rat at 1 mg/kg administered via oral gavage measured after 16 hrs by gravimetric analysis relative to vehicle-treated control. The assay is classed as functional.
The test system of assay [10] is Rattus norvegicus. Description: Effect on fecal form in rat at 10 mg/kg, po administered with 33-labeled Pi. The assay is classed as functional, organism-based.

The source made the active and inactive calls. The rule behind the calls is not given here.

Consider `CN1Cc2c(Cl)cc(Cl)cc2[C@H](c2cccc(S(=O)(=O)NCCOCCOCCNC(=O)CCC(CCC(=O)NCCOCCOCCNS(=O)(=O)c3cccc([C@@H]4CN(C)Cc5c(Cl)cc(Cl)cc54)c3)(CCC(=O)NCCOCCOCCNS(=O)(=O)c3cccc([C@@H]4CN(C)Cc5c(Cl)cc(Cl)cc54)c3)NC(=O)N3CCN(CCOCCO)CC3)c2)C1`, for which the values for the Activity in the assay with Rattus norvegicus [1] and in the assay with Rattus norvegicus [2] were 31% and 34%, respectively.

In the assay on Rattus norvegicus [3], `CN1Cc2c(Cl)cc(Cl)cc2[C@@H](c2cccc(S(=O)(=O)NCCOCCOCCNC(=O)NCCCCNC(=O)NCCOCCOCCNS(=O)(=O)c3cccc([C@@H]4CN(C)Cc5c(Cl)cc(Cl)cc54)c3)c2)C1.Cl.Cl` returned an Activity of 90%.

Regarding `CN1Cc2c(Cl)cc(Cl)cc2[C@@H](c2cccc(S(=O)(=O)NCCOCCOCCNC(=O)NCCCC(N)(CCCNC(=O)NCCOCCOCCNS(=O)(=O)c3cccc([C@@H]4CN(C)Cc5c(Cl)cc(Cl)cc54)c3)CCCNC(=O)NCCOCCOCCNS(=O)(=O)c3cccc([C@@H]4CN(C)Cc5c(Cl)cc(Cl)cc54)c3)c2)C1`, the Activity in the assay with Rattus norvegicus [1] is 56%; with Rattus norvegicus [2] it was 50%.

`CN1Cc2c(Cl)cc(Cl)cc2[C@H](c2cccc(S(=O)(=O)NCCOCCOCCNC(=O)CCC(CCC(=O)NCCOCCOCCNS(=O)(=O)c3cccc([C@@H]4CN(C)Cc5c(Cl)cc(Cl)cc54)c3)(CCC(=O)NCCOCCOCCNS(=O)(=O)c3cccc([C@@H]4CN(C)Cc5c(Cl)cc(Cl)cc54)c3)NC(=O)N[C@@H](CC(=O)O)C(=O)O)c2)C1`: the Activity with Rattus norvegicus [1] came to 41%; in the assay on Rattus norvegicus [2], 51%.

On to `O=C(NCCCCNC(=O)NCCOCCOCCNS(=O)(=O)c1ccc(O[C@H]2c3ccccc3C[C@@H]2N2CCCCC2)cc1)NCCOCCOCCNS(=O)(=O)c1ccc(O[C@H]2c3ccccc3C[C@@H]2N2CCCCC2)cc1`, for which the Activity with Rattus norvegicus [4] is on record as 30 - 51%; with Rattus norvegicus [3], 35 - 73%.

Regarding `N=C(N)Nc1nc(-c2ccc(N3CCN(CCOCCOCCOCCNC(=O)CCOCCOCCOCCOCCOCCC(=O)NCCOCCOCCOCCN4CCN(c5ccc(-c6nc(NC(=N)N)nc7ccc(Cl)cc67)cc5)CC4)CC3)cc2)c2cc(Cl)ccc2n1`, the Activity in the assay with Rattus norvegicus [3] stood at 100%.

Turning to `CN1Cc2c(Cl)cc(Cl)cc2[C@@H](c2cccc(S(=O)(=O)NCCOCCOCCNC(=O)NCCCCNC(=O)NCCOCCOCCNS(=O)(=O)c3cccc([C@H]4CN(C)Cc5c(Cl)cc(Cl)cc54)c3)c2)C1`, the inhibition entry with Rattus norvegicus [5], with Rattus norvegicus [6] and in the assay on Rattus norvegicus [7] was “Active” each time.

In the case of `CN1Cc2c(Cl)cc(Cl)cc2[C@H](c2cccc(S(=O)(=O)NCCOCCOCCOCCNC(=O)CN(CCOCCOCCN(CC(=O)NCCOCCOCCOCCNS(=O)(=O)c3cccc([C@@H]4CN(C)Cc5c(Cl)cc(Cl)cc54)c3)CC(=O)NCCOCCOCCOCCNS(=O)(=O)c3cccc([C@@H]4CN(C)Cc5c(Cl)cc(Cl)cc54)c3)CC(=O)NCCOCCOCCOCCNS(=O)(=O)c3cccc([C@@H]4CN(C)Cc5c(Cl)cc(Cl)cc54)c3)c2)C1`, the Activity is given as 95% in the assay on Rattus norvegicus [4] and 51% in the assay with Rattus norvegicus [3].

As to `CN1Cc2c(Cl)cc(Cl)cc2[C@H](c2cccc(S(=O)(=O)NCCOCCOCCN(C)C(=O)NCCCN(CCCNC(=O)N(C)CCOCCOCCNS(=O)(=O)c3cccc([C@@H]4CN(C)Cc5c(Cl)cc(Cl)cc54)c3)CCCNC(=O)N(C)CCOCCOCCNS(=O)(=O)c3cccc([C@@H]4CN(C)Cc5c(Cl)cc(Cl)cc54)c3)c2)C1`, the Activity in the assay with Rattus norvegicus [1] is reported as 38%; in the assay with Rattus norvegicus [2], 68%.

Turning to `O=C(NCCCCNC(=O)NCCOCCOCCOCCNS(=O)(=O)c1ccc(O[C@H]2c3ccccc3C[C@@H]2N2CCCCC2)cc1)NCCOCCOCCOCCNS(=O)(=O)c1ccc(O[C@H]2c3ccccc3C[C@@H]2N2CCCCC2)cc1`, the Activity is reported as 43 - 52% in the assay with Rattus norvegicus [4] and 33 - 79% in the assay on Rattus norvegicus [3].

Take `CN1Cc2c(Cl)cc(Cl)cc2[C@H](c2cccc(S(=O)(=O)NCCOCCOCCNC(=O)Nc3ccc(NC(=O)NCCOCCOCCNS(=O)(=O)c4cccc([C@@H]5CN(C)Cc6c(Cl)cc(Cl)cc65)c4)cc3)c2)C1.Cl.Cl`: the inhibition entry in the assay with Rattus norvegicus [5], with Rattus norvegicus [6] and in the assay with Rattus norvegicus [7] was “Active” throughout. Further, the outcome in the assay on Rattus norvegicus [8] and in the assay on Rattus norvegicus [10] was Active. In the assay with Rattus norvegicus [9], this molecule had an Activity of 22%.

As for `CN1Cc2c(Cl)cc(Cl)cc2[C@H](c2ccc(S(=O)(=O)NCCOCCOCCOCCNC(=O)COCC(=O)NCCOCCOCCOc3cccc(-c4nc(NC(=N)N)nc5ccc(Cl)cc45)c3)cc2)C1`, the Activity came out at 150% in the assay with Rattus norvegicus [4] and 87% with Rattus norvegicus [3].

In the case of `CN(CC(=O)NCCOCCOCCOCCN1CCN(c2ccc(-c3nc(NC(=N)N)nc4ccc(Cl)cc34)cc2)CC1)CC(=O)NCCOCCOCCOCCN1CCN(c2ccc(-c3nc(NC(=N)N)nc4ccc(Cl)cc34)cc2)CC1`, the Activity was 101% in the assay with Rattus norvegicus [4] and 66% in the assay on Rattus norvegicus [3].

On to `CN1Cc2c(Cl)cc(Cl)cc2[C@H](c2cccc(S(=O)(=O)NCCOCCOCCNC(=O)NCCN(CCNC(=O)NCCOCCOCCNS(=O)(=O)c3cccc([C@@H]4CN(C)Cc5c(Cl)cc(Cl)cc54)c3)C(=O)CCOCCOCCOCCOCCOCCC(=O)N(CCNC(=O)NCCOCCOCCNS(=O)(=O)c3cccc([C@@H]4CN(C)Cc5c(Cl)cc(Cl)cc54)c3)CCNC(=O)NCCOCCOCCNS(=O)(=O)c3cccc([C@@H]4CN(C)Cc5c(Cl)cc(Cl)cc54)c3)c2)C1`, for which the Activity in the assay on Rattus norvegicus [4] is given as 69%; in the assay on Rattus norvegicus [3], 47%.

Take `CN(C)[C@H]1Cc2c(Cl)cc(Cl)cc2[C@@H]1Oc1ccc(S(=O)(=O)N(C)CCOCCOCCNC(=O)NCCCCNC(=O)NCCOCCOCCN(C)S(=O)(=O)c2ccc(O[C@H]3c4cc(Cl)cc(Cl)c4C[C@@H]3N(C)C)cc2)cc1`: the Activity in the assay with Rattus norvegicus [4] and in the assay on Rattus norvegicus [3] was 49% each time.

In the case of `O=C(O)CN(CCN(CC(=O)O)CC(=O)NCCOCCOCCNS(=O)(=O)c1ccc(O[C@H]2c3ccccc3C[C@@H]2N2CCCCC2)cc1)CC(=O)NCCOCCOCCNS(=O)(=O)c1ccc(O[C@H]2c3ccccc3C[C@@H]2N2CCCCC2)cc1`, the Activity with Rattus norvegicus [4] is on record as 55 - 85%; in the assay with Rattus norvegicus [3], 68 - 93%.
